Patent US7459557B2, “Substituted isoindole-1,3-diones” (Janssen Pharmaceutica N.V., priority 2005, dated 2008)
“And” between values parts separate entries of the source, which are not always exact repeats. Equal values may be shown once.

How the values were obtained:
[1] = biological target: T1, α1b-AR (Homo sapiens, UniProt P35368); experiment: α1-adrenergic receptor radio-ligand (125I-HEAT) binding assay, α1b subtype; details: COS-7 cell membranes transfected with α1b subtype, 125I-HEAT 50 pM
T1 construct: expressed in transfected cells; host or cells: COS-7 (African Green monkey kidney) cell membranes
T1 sequence (P35368 1-520): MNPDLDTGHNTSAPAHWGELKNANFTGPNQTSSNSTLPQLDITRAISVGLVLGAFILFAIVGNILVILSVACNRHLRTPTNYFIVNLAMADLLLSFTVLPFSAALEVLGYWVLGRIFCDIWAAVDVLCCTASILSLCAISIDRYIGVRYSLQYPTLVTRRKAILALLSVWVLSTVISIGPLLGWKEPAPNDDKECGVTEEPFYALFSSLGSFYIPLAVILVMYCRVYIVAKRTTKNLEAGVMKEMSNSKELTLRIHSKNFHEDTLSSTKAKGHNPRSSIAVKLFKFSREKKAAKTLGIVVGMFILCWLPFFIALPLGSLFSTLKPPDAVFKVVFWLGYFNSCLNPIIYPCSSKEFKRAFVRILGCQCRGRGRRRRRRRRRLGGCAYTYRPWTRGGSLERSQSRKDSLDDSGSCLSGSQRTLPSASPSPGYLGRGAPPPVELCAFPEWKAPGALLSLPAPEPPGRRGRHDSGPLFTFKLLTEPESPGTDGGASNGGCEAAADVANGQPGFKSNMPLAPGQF
Method: (§1) α1-Adrenergic Receptor Binding Assay
(§2) Preparation of COS Cell Membranes
(§3) Membranes were prepared from COS-7 cells (African Green monkey kidney SV40-transformed cells) that had been transfected with one of the three α1-AR subtypes (Genbank accession number for the α1a subtype: AF013261; Genbank accession number for the α1b subtype: NM000679; Genbank accession number for the α1d subtype: NM000678) using the following method: COS cells from ten 100 mm tissue culture plates were scraped into a 5 mL volume of TE (a mixture of 50 mM Tris-HCl, 5 mM EDTA, pH 7.4). The cell suspension was disrupted with a Brinkman Polytron (at a setting of 8) for 10 sec. The disrupted cells were centrifuged at 1000×g for 10 min at 4° C. Supernatants were centrifuged at 34,500×g for 20 min at 4° C. The membrane pellets were suspended in a 2 mL volume of TNE (a mixture of 50 mM Tris-HCl, 5 mM EDTA and 150 mM NaCl at pH 7.4). An aliquot of the membrane suspension was stored at −70° C. until use. The protein concentration was determined using the BioRad “DC” protein assay kit following membrane solubilization with Triton X-100.
(§4) Radio-Ligand Binding Assay
Triplicate determinations of radio-ligand binding in the presence of increasing concentrations of testing compound were made. The reagents were added to 96-well polypropylene plate wells. Each assay well contained 140 μL TNE, 25 μL ^125I-2-(β-4-hydroxyphenyl)ethylaminomethyltetralone (^125I-HEAT) (specific activity 2200 Ci/mmol, Dupont-New England Nuclear, 50 pM final), 10 μL testing compound dissolved in dimethyl sulfoxide (DMSO) (1 pM to 10 μM in half-log increments, final), and 25 μL appropriate α1-AR membrane subtype suspension in TNE (0.5 ng/μL for the α1a and α1b subtypes and 13 ng/μL for the α1d subtype). The plate was incubated at rt for 1 hr. The contents of the wells were filtered through a glass filter (type C) (GF/C) membrane Unifilter plate (Packard Instruments) using the Packard Filtermate cell harvester. The filter plates were dried in a vacuum oven for 30 min at 40° C. 25 μL Microscint 20 liquid scintillation fluid (Packard Instuments) was added to each well. The radioactive content was analyzed in the TopCount microplate scintillation counter (Packard Instruments).
The Ki values (in nM) shown in Table 1 were determined using GraphPad Prism software.

[2] = biological target: T2, α1a-AR (Homo sapiens, UniProt P35348); experiment: α1-adrenergic receptor radio-ligand (125I-HEAT) binding assay, α1a subtype; details: COS-7 cell membranes transfected with α1a subtype, 125I-HEAT 50 pM
T2 construct: expressed in transfected cells; host or cells: COS-7 (African Green monkey kidney) cell membranes
T2 sequence (P35348 1-455 isoform P35348-4): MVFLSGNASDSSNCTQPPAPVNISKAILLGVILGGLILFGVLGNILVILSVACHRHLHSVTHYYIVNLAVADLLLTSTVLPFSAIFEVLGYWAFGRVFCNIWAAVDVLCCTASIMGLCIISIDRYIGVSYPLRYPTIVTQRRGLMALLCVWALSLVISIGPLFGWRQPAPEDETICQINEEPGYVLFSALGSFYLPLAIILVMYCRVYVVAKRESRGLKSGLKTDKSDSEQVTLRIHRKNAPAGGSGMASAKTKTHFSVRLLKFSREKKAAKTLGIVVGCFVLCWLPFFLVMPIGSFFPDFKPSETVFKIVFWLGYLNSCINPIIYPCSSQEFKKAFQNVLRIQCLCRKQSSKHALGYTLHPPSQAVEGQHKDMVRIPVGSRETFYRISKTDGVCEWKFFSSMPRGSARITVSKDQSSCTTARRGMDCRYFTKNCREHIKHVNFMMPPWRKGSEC
Method: as §1, §2, §3, §4
(§5) Triplicate determinations of radio-ligand binding in the presence of increasing concentrations of testing compound were made. The reagents were added to 96-well polypropylene plate wells. […] The plate was incubated at rt for 1 hr. The contents of the wells were filtered through a glass filter (type C) (GF/C) membrane Unifilter plate (Packard Instruments) using the Packard Filtermate cell harvester. The filter plates were dried in a vacuum oven for 30 min at 40° C. 25 μL Microscint 20 liquid scintillation fluid (Packard Instuments) was added to each well. The radioactive content was analyzed in the TopCount microplate scintillation counter (Packard Instruments).

[3] = biological target: T3, α1d-AR (Homo sapiens, UniProt P25100); experiment: α1-adrenergic receptor radio-ligand (125I-HEAT) binding assay, α1d subtype; details: COS-7 cell membranes transfected with α1d subtype, 125I-HEAT 50 pM
T3 construct: expressed in transfected cells; host or cells: COS-7 (African Green monkey kidney) cell membranes
T3 sequence (P25100 1-572): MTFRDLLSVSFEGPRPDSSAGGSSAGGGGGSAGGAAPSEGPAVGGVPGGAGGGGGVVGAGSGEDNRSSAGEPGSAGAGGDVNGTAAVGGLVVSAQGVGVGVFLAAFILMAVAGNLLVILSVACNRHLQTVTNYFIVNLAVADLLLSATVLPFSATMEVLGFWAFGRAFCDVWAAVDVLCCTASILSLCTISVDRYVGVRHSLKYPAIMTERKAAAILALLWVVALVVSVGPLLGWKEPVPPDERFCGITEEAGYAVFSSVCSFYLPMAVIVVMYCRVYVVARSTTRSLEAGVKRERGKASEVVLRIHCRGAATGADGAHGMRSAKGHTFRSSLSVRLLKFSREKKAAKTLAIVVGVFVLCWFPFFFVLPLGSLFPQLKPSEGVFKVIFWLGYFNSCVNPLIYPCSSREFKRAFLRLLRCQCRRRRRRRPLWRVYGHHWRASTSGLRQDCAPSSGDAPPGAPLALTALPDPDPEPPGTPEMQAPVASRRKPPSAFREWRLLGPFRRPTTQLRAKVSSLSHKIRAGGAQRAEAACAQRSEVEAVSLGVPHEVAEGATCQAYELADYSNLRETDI
Method: as §1, §2, §3, §4, §5

[4] = system: α1a and α1d subtypes over the α1b subtype; details: cited from earlier work

| Ki [1] | Ki [2] | Ki [3] | SMILES | selectivity for the α1a and α1d subtypes over the α1b subtype [4] |
| --- | --- | --- | --- | --- |
| 269 nM | 15 nM | 16.4 nM | CC(C)Oc1ccccc1N1CCN([C@H]2CC[C@@H](N3C(=O)c4ccc5ccc(F)cc5c4C3=O)CC2)CC1 [Cpd 8, 8-fluoro-r-2-{c-4-[4-(2-isopropoxy-phenyl)-piperazin-1-yl]-cyclohexyl}-benzo[e]isoindole-1,3-dione] | – |
| 16 nM and 14 nM | 0.58 nM and 3 nM | 0.27 nM and 0.13 nM | CC(C)Oc1ccccc1N1CCN(C2CCC(N3C(=O)c4ccc5ccccc5c4C3=O)CC2)CC1 (mixture of isomers) [Cpd 7, 2-{4-[4-(2-isopropoxy-phenyl)-piperazin-1-yl]-cyclohexyl}-benzo[e]isoindole-1,3-dione] | – |
| 35 nM and 58 nM | 1.9 nM and 5.9 nM | 0.61 nM and 0.3 nM | CC(C)Oc1ccccc1N1CCN([C@H]2CC[C@H](N3C(=O)c4ccc5ccc(F)cc5c4C3=O)CC2)CC1 [Cpd 9, 8-fluoro-r-2-{t-4-[4-(2-isopropoxy-phenyl)-piperazin-1-yl]-cyclohexyl}-benzo[e]isoindole-1,3-dione] | – |

The next lines start with the compound.

| SMILES | Ki [1] | Ki [2] | Ki [3] | selectivity for the α1a and α1d subtypes over the α1b subtype [4] |
| --- | --- | --- | --- | --- |
| CC(C)Oc1ccccc1N1CCN([C@H]2CC[C@H](N3C(=O)c4cccc(F)c4C3=O)CC2)CC1 [Cpd 3, 4-fluoro-r-2-{t-4-[4-(2-isopropoxy-phenyl)-piperazin-1-yl]-cyclohexyl}-isoindole-1,3-dione] | 17.9 nM | 0.2 nM | 0.09 nM | – |
| CCOc1ccccc1OCCN[C@H](C)Cc1ccc(OC)c(S(N)(=O)=O)c1 [Tamsulosin] | – | – | – | about 15 fold |
| CC(C)Oc1ccccc1N1CCN(C2CCC(N3C(=O)c4cc(Cl)c(Cl)cc4C3=O)CC2)CC1 (mixture of isomers) [Cpd 2, 5,6-dichloro-2-{4-[4-(2-isopropoxy-phenyl)-piperazin-1-yl]-cyclohexyl}-isoindole-1,3-dione] | 1080 nM | 2.69 nM | 0.31 nM | – |
| CC(C)Oc1ccccc1N1CCN(C2CCC(N3C(=O)c4ccncc4C3=O)CC2)CC1 (mixture of isomers) [Cpd 6, 2-{4-[4-(2-isopropoxy-phenyl)-piperazin-1-yl]-cyclohexyl}-pyrrolo[3,4-c]pyridine-1,3-dione] | 22.4 nM | 0.43 nM | 0.77 nM | – |
| CC(C)Oc1ccccc1N1CCN(C2CCC(N3C(=O)c4c(F)c(F)c(F)c(F)c4C3=O)CC2)CC1 (mixture of isomers) [Cpd 1, 4,5,6,7-tetrafluoro-2-{4-[4-(2-isopropoxy-phenyl)-piperazin-1-yl]-cyclohexyl}-isoindole-1,3-dione] | 4110 nM | 37.8 nM | 30.2 nM | – |
| CC(C)Oc1ccccc1N1CCN(C2CCC(N3C(=O)c4cccnc4C3=O)CC2)CC1 (mixture of isomers) [Cpd 5, 6-{4-[4-(2-isopropoxy-phenyl)-piperazin-1-yl]-cyclohexyl}-pyrrolo[3,4-b]pyridine-5,7-dione] | 44.6 nM | 0.75 nM | 1.45 nM | – |
| CC(C)Oc1ccccc1N1CCN([C@H]2CC[C@@H](N3C(=O)c4cccc(F)c4C3=O)CC2)CC1 [Cpd 4, 4-fluoro-r-2-{c-4-[4-(2-isopropoxy-phenyl)-piperazin-1-yl]-cyclohexyl}-isoindole-1,3-dione] | 164 nM and 129 nM and 88 nM | 0.873 nM and 1.1 nM and 0.95 nM | 3.24 nM and 13.5 nM and 28 nM | – |
